In patent US20060110456A1, “Method for biocidal and/or biostatic treatment and compositions therefor” (NATIONAL UNIVERSITY OF SINGAPORE, priority 2004, published 2006):
Entries after “also recorded” stand apart in the source; their conditions may differ. Counter-ions that a name gives are not always drawn. Like-named read-outs stand apart in the source and are kept apart here.

Experiments:
[1] = system: marine bacteria (26 strains); test: Disk inhibition assay; format: cell-based, marine bacteria isolated from Singapore fouling communities; conditions: for zone of inhibition at 25 µg/disc: 25 μg per disc; for zone of inhibition at 50 µg/disc: 50 μg per disc
Summary of the method: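 Tablets or capsule powders suspended in sterile water at 2 mg ml^−1 and loaded onto disks; antibiotic discs (Amp, Ery, Str, Tet) served as comparison. Disks placed on swabbed lawns on Marine Agar, incubated overnight in the dark at 30° C. Zone of clearing diameter measured by calipers; three replicates on three occasions.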

[2] = system: hard fouling (barnacles, serpulids, spirorbids); test: Field testing of coated rods; format: in vivo; set-up: Total hard fouling, difference in mean cover (%), drug vs control / Barnacles, difference in mean cover (%), drug vs control: tested at 25 µg/ml of coating; Serpulids, difference in mean cover (%), drug vs control: tested at 25 µg/ml of coating mix; conditions: for Overall performance in field assay: crude rank, best (1) to worst (8); for Barnacles, difference in mean cover (%), drug vs VC50 / Serpulids, difference in mean cover (%), drug vs VC50 / Spirorbids, difference in mean cover (%), drug vs VC50 / Total hard fouling, difference in mean cover (%), drug vs VC50: drug + VC50 rods vs VC50 control; for Barnacles, difference in mean cover (%), drug vs control / Serpulids, difference in mean cover (%), drug vs control / Spirorbids, difference in mean cover (%), drug vs control / Total hard fouling, difference in mean cover (%), drug vs control: drug + VC50 rods vs uncoated blank control; for Reduction of total hard fouling cover compared to VC50 alone / Effect of addition of drug on antifouling performance of VC50 coating (total hard fouling): drug at 25 ug per ml of VC50 coating; for Barnacles Mean cover (%) / Serpulids Mean cover (%) / Spirorbids Mean cover (%) / Total hard fouling Mean cover (%): rods coated with drug + VC50, field test; for Total hard fouling Mean cover (%): percentage cover within 6 mm×50 mm transect
Description: Fouling on rods occurs more rapidly than on flat panels, enabling rapid assessment of the performance of coatings.
6 mm diameter glass rods were cut to 150 mm length and prepared prior to coating by baking in a furnace at 150° C. for 24 hours and then cooling in a dessicator.
All pharmaceuticals were obtained in commercially available form. All tablets were reduced to fine powder with a mortar and pestle, and capsules were opened to extract the contents. The amount of drug powder required to attain the desired concentrations for all tests was calculated from product dosage information and then measured by weight on a high-resolution electronic balance. This was added to the coating and mixed thoroughly prior to application to obtain the concentration of 25 ug active ingredient per ml of coating mix.
The commercial antifouling product used to benchmark field experiments was VC Offshore with Teflon® manufactured by International Coatings.
For our experiments, a reduced copper coating (“VC50”) was prepared by mixing approximately 20 g of #YBA779 into 100 ml of #YBA707. The prepared coating was then allowed to stand so that bubbles from the mixing process dissipated. 15 ml centrifuge tubes were filled with 10 mls of prepared coating. Prepared glass rods were then immersed in the coating to a height of 100 mm and then suspended on a frame to air dry until coating cured.
Five replicate rods were tested for every experimental treatment, including controls. Two sets of controls were used, an uncoated blank control and a VC50 control without pharmaceutical additives. Rod were randomly arrayed on plastic vexar mesh attached to PVC frames and suspended at a depth of 10 cm from the water surface. […] Rods were examined visually weekly for the duration of testing, which typically lasts between 6 to 10 weeks. All fouling was scored as percentage cover of each category within a 6 mm×50 mm transect on each rod.

[3] = crude rank, best (1) to worst (8)

Compound: CNCCC(Oc1ccc(C(F)(F)F)cc1)c1ccccc1 (stereo not drawn) [PZC, fluoxetine hydrochloride]
- Activity against the three Vibrio strains tested [1]: exhibited activity against the three Vibrio strains tested
- Antibiotic activity against marine bacteria [1]: strongest activity
- Number of strains inhibited out of 26 strains [1]: 23
- Strains showing no inhibition (of 26) [1]: only strain 6 was not inhibited
- Antibiotic activity against marine bacteria [1, 3]: 2
- zone of inhibition at 25 µg/disc ([1]; strain 1 (Rhodovulum)): < 5 mm
- zone of inhibition at 50 µg/disc ([1]; strain 1 (Rhodovulum)): 5 to 9 mm
- zone of inhibition at 25 µg/disc ([1]; strain 2 (Erythrobacter)): 10 to 19 mm
- zone of inhibition at 50 µg/disc ([1]; strain 2 (Erythrobacter)): 10 to 19 mm
- zone of inhibition at 25 µg/disc ([1]; strain 3 (Erythrobacter)): 10 to 19 mm
- zone of inhibition at 50 µg/disc ([1]; strain 3 (Erythrobacter)): 10 to 19 mm
- zone of inhibition at 25 µg/disc ([1]; strain 4 (Bacillus)): 10 to 19 mm
- zone of inhibition at 50 µg/disc ([1]; strain 4 (Bacillus)): 20 to 29 mm
- zone of inhibition at 25 µg/disc ([1]; strain 6 (Vibrio)): < 5 mm
- zone of inhibition at 50 µg/disc ([1]; strain 6 (Vibrio)): < 5 mm
- zone of inhibition at 25 µg/disc ([1]; strain 7 (Vibrio)): < 5 mm
- zone of inhibition at 50 µg/disc ([1]; strain 7 (Vibrio)): 10 to 19 mm
- zone of inhibition at 25 µg/disc ([1]; strain 8 (Bacillus)): 10 to 19 mm
- zone of inhibition at 50 µg/disc ([1]; strain 8 (Bacillus)): 20 to 29 mm
- zone of inhibition at 25 µg/disc ([1]; strain 9 (Bacillus)): 10 to 19 mm
- zone of inhibition at 50 µg/disc ([1]; strain 9 (Bacillus)): 10 to 19 mm
- zone of inhibition at 25 µg/disc ([1]; strain 10 (Halobacillus)): 10 to 19 mm
- zone of inhibition at 50 µg/disc ([1]; strain 10 (Halobacillus)): 10 to 19 mm
- zone of inhibition at 25 µg/disc ([1]; strain 11 (Pseudomonas)): 10 to 19 mm
- zone of inhibition at 50 µg/disc ([1]; strain 11 (Pseudomonas)): 20 to 29 mm
- zone of inhibition at 25 µg/disc ([1]; strain 12 (Gordonia)): 10 to 19 mm
- zone of inhibition at 50 µg/disc ([1]; strain 12 (Gordonia)): 20 to 29 mm
- zone of inhibition at 25 µg/disc ([1]; strain 13 (Bacillus)): 10 to 19 mm
- zone of inhibition at 50 µg/disc ([1]; strain 13 (Bacillus)): 10 to 19 mm
- zone of inhibition at 25 µg/disc ([1]; strain 14 (Vibrio)): 10 to 19 mm
- zone of inhibition at 50 µg/disc ([1]; strain 14 (Vibrio)): 10 to 19 mm
- zone of inhibition at 25 µg/disc ([1]; strain 16 (Pseudoalteromonas)): 5 to 9 mm
- zone of inhibition at 50 µg/disc ([1]; strain 16 (Pseudoalteromonas)): 10 to 19 mm
- zone of inhibition at 25 µg/disc ([1]; strain 17 (Gordonia)): 10 to 19 mm
- zone of inhibition at 50 µg/disc ([1]; strain 17 (Gordonia)): 20 to 29 mm
- zone of inhibition at 25 µg/disc ([1]; strain 18 (Microbacterium)): 10 to 19 mm
- zone of inhibition at 50 µg/disc ([1]; strain 18 (Microbacterium)): 10 to 19 mm
- zone of inhibition at 25 µg/disc ([1]; strain 19 (Erythrobacter)): 10 to 19 mm
- zone of inhibition at 50 µg/disc ([1]; strain 19 (Erythrobacter)): 20 to 29 mm
- zone of inhibition at 25 µg/disc ([1]; strain 20): 10 to 19 mm
- zone of inhibition at 50 µg/disc ([1]; strain 20): 10 to 19 mm
- zone of inhibition at 25 µg/disc ([1]; strain 21): 5 to 9 mm
- zone of inhibition at 50 µg/disc ([1]; strain 21): 10 to 19 mm
- zone of inhibition at 25 µg/disc ([1]; strain 22): 10 to 19 mm
- zone of inhibition at 50 µg/disc ([1]; strain 22): 10 to 19 mm
- zone of inhibition at 25 µg/disc ([1]; strain 24): 5 to 9 mm
- zone of inhibition at 50 µg/disc ([1]; strain 24): 10 to 19 mm
- zone of inhibition at 25 µg/disc ([1]; strain 26): 5 to 9 mm
- zone of inhibition at 50 µg/disc ([1]; strain 26): 5 to 9 mm
- zone of inhibition at 25 µg/disc ([1]; strain 27): 20 to 29 mm
- zone of inhibition at 50 µg/disc ([1]; strain 27): 20 to 29 mm
- zone of inhibition at 25 µg/disc ([1]; strain 28): 10 to 19 mm
- zone of inhibition at 50 µg/disc ([1]; strain 28): 10 to 19 mm
- zone of inhibition at 25 µg/disc ([1]; strain 29): 10 to 19 mm
- zone of inhibition at 50 µg/disc ([1]; strain 29): 20 to 29 mm
- zone of inhibition at 25 µg/disc ([1]; strain 30): 10 to 19 mm
- zone of inhibition at 50 µg/disc ([1]; strain 30): 10 to 19 mm
- Overall performance in field assay [2]: 6
- Barnacles, difference in mean cover (%), drug vs VC50 [2]: −14%
- Serpulids, difference in mean cover (%), drug vs VC50 [2]: −1.67%
- Spirorbids, difference in mean cover (%), drug vs VC50 [2]: −7.67%
- Total hard fouling, difference in mean cover (%), drug vs VC50 [2]: −23.37%
- Barnacles, difference in mean cover (%), drug vs control [2]: −78.34%
- Serpulids, difference in mean cover (%), drug vs control [2]: −6.67%
- Spirorbids, difference in mean cover (%), drug vs control [2]: +3.33%
- Total hard fouling, difference in mean cover (%), drug vs control [2]: −81.67%
- Reduction of total hard fouling cover compared to VC50 alone [2]: ~24%
- Effect of addition of drug on antifouling performance of VC50 coating (total hard fouling) ([2]; in words): did not significantly improve antifouling performance
- Barnacles Mean cover (%) [2]: 9.33%
- Serpulids Mean cover (%) [2]: 0%
- Spirorbids Mean cover (%) [2]: 9%
- Total hard fouling Mean cover (%) [2]: 18.33%

Compound: CN1CCN(C(c2ccccc2)c2ccccc2)CC1 [CYZ, Cyclizine hydrochloride]
- Antibiotic activity against marine bacteria ([1]; 25 or 50 μg per disc, in words): did not have any appreciable antibiotic activity against marine bacteria
- Antibiotic activity against marine bacteria [1, 3]: 8
- Performance against barnacles ([2]; coated rods, in words): significantly lower than both blank and VC50 controls
- Performance against serpulid polychaetes ([2]; coated rods, in words): significantly enhanced the performance of VC50 against serpulid polychaetes
- Overall performance in field assay [2]: 5
- Barnacles, difference in mean cover (%), drug vs VC50 [2]: −13%
- Serpulids, difference in mean cover (%), drug vs VC50 [2]: −1.67%
- Spirorbids, difference in mean cover (%), drug vs VC50 [2]: −5%
- Total hard fouling, difference in mean cover (%), drug vs VC50 [2]: −19.7%
- Barnacles, difference in mean cover (%), drug vs control [2]: −77.34%
- Serpulids, difference in mean cover (%), drug vs control [2]: −6.67%
- Spirorbids, difference in mean cover (%), drug vs control [2]: +6%
- Total hard fouling, difference in mean cover (%), drug vs control [2]: −78.0%
- Reduction of total hard fouling cover compared to VC50 alone [2]: 47.2%
- Effect of addition of drug on antifouling performance of VC50 coating (total hard fouling) ([2]; in words, hydrochloride): marginally increased the performance of VC50 coating; also recorded: significantly improved the performance of VC50 coating
- Barnacles Mean cover (%) [2]: 10.33%
- Serpulids Mean cover (%) [2]: 0%
- Spirorbids Mean cover (%) [2]: 11.67%
- Total hard fouling Mean cover (%) [2]: 22.0%

Compound: CCCCCCCCCC(=O)OC1(c2ccc(Cl)cc2)CCN(CCCC(=O)c2ccc(F)cc2)CC1 [HDL, haloperidol decanoate]
- Antibiotic activity against marine bacteria ([1]; 25 or 50 μg per disc, in words): did not have any appreciable antibiotic activity against marine bacteria
- Antibiotic activity against marine bacteria [1, 3]: 8
- Total hard fouling, mean cover ([2]; coated rods, 25 ug active ingredient per ml of VC50 coating): 30%
- Performance against barnacles ([2]; coated rods, in words): did not significantly reduce barnacle cover compared to VC50 controls
- Performance against serpulid polychaetes ([2]; coated rods, in words): completely excluded
- Performance against spirorbid polychaetes ([2]; coated rods, in words): exclude spirorbid settlement; also recorded: significantly improve the performance of VC50 against spirorbid polychaetes
- Overall performance in field assay [2]: 4
- Barnacles, difference in mean cover (%), drug vs VC50 [2]: −6.7%
- Serpulids, difference in mean cover (%), drug vs VC50 [2]: −1.67%
- Spirorbids, difference in mean cover (%), drug vs VC50 [2]: −16.66%
- Total hard fouling, difference in mean cover (%), drug vs VC50 [2]: −25%
- Barnacles, difference in mean cover (%), drug vs control [2]: −69.7%
- Serpulids, difference in mean cover (%), drug vs control [2]: −3.33%
- Spirorbids, difference in mean cover (%), drug vs control [2]: +5%
- Total hard fouling, difference in mean cover (%), drug vs control [2]: −68%
- Effect of addition of drug on antifouling performance of VC50 coating (total hard fouling) ([2]; in words): significantly less on VC50+HDL treated rods; also recorded: significantly improved the performance of VC50 coating
- Barnacles Mean cover (%) [2]: 23.3%
- Serpulids Mean cover (%) [2]: 0%
- Spirorbids Mean cover (%) [2]: 6.67%
- Total hard fouling Mean cover (%) [2]: 30%
